Values joined by “and” are separate entries in the source; they are usually repeats but may differ in a detail not shown here. Equal values may be shown once. Read-outs that look alike come from different tables or passages of the source. Peptide text beside a SMILES is read from it. * marks the point of attachment. Fluorescein(5-NHCOCH2) = O=C(C*)Nc1ccc2c(c1)C(=O)OC21c2ccc(O)cc2Oc2cc(O)ccc21
Legend:
CBP KIX K606A = molecular target: T1, CBP KIX K606A (Mus musculus, UniProt P45481, K606A); assay: Equilibrium fluorescence polarization, CBP KIX variant K606A; assay type: binding; conditions: 25° C.
T1 construct: made in house; host or cells: E. coli BL21(DE3) pArg
T1 sequence (P45481 586-665 K606A limits assumed): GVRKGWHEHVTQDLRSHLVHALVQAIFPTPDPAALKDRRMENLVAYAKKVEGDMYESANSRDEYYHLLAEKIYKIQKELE

CBP KIX L603A = molecular target: T2, CBP KIX L603A (Mus musculus, UniProt P45481, L603A); assay: Equilibrium fluorescence polarization, CBP KIX variant L603A; assay type: binding; conditions: 25° C.
T2 construct: made in house; host or cells: E. coli BL21(DE3) pArg
T2 sequence (P45481 586-665 L603A limits assumed): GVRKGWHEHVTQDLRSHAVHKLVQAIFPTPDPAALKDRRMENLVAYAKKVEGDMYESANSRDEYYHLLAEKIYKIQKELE

Calmodulin [1] = molecular target: T3, Calmodulin (Homo sapiens, UniProt P0DP23); assay: Fluorescence polarization specificity, calmodulin; assay type: binding; conditions: calmodulin as target protein; read-out: Kd CalM
T3 construct: purchased Sigma
Description: (§1) Given the myriad protein surfaces present in the cell, the utility of molecules that recognize protein surfaces will depend on their ability to interact selectively with the desired protein.

CBP KIX L599A = molecular target: T4, CBP KIX L599A (Mus musculus, UniProt P45481, L599A); assay: Equilibrium fluorescence polarization, CBP KIX variant L599A; assay type: binding; conditions: 25° C.
T4 construct: made in house; host or cells: E. coli BL21(DE3) pArg
T4 sequence (P45481 586-665 L599A limits assumed): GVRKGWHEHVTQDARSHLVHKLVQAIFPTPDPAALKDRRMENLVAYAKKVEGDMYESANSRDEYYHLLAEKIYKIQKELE

CBP KIX Y658F = molecular target: T5, CBP KIX Y658F (Mus musculus, UniProt P45481, Y658F); assay: Equilibrium fluorescence polarization, CBP KIX variant Y658F; assay type: binding; conditions: 25° C.
T5 construct: made in house; host or cells: E. coli BL21(DE3) pArg
T5 sequence (P45481 586-665 Y658F limits assumed): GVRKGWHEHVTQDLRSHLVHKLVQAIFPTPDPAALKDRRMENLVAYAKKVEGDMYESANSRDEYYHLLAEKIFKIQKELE

CBP KIX I660A = molecular target: T6, CBP KIX I660A (Mus musculus, UniProt P45481, I660A); assay: Equilibrium fluorescence polarization, CBP KIX variant I660A; assay type: binding; conditions: 25° C.
T6 construct: made in house; host or cells: E. coli BL21(DE3) pArg
T6 sequence (P45481 586-665 I660A limits assumed): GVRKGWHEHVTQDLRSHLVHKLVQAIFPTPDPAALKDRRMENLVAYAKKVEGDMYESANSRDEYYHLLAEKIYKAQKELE

Carbonic anhydrase II [2] = molecular target: T7, Carbonic anhydrase II (Homo sapiens, UniProt P00918); assay: Fluorescence polarization specificity, carbonic anhydrase II; assay type: binding; conditions: carbonic anhydrase II as target protein; read-out: Kd CA
T7 construct: purchased Sigma
Description: as §1

CBP KIX Y650A = molecular target: T8, CBP KIX Y650A (Mus musculus, UniProt P45481, Y650A); assay: Equilibrium fluorescence polarization, CBP KIX variant Y650A; assay type: binding; conditions: 25° C.
T8 construct: made in house; host or cells: E. coli BL21(DE3) pArg
T8 sequence (P45481 586-665 Y650A limits assumed): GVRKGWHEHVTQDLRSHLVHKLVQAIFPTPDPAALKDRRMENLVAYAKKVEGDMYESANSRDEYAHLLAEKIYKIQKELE

CBP KIX E655A = molecular target: T9, CBP KIX E655A (Mus musculus, UniProt P45481, E655A); assay: Equilibrium fluorescence polarization, CBP KIX variant E655A; assay type: binding; conditions: 25° C.
T9 construct: made in house; host or cells: E. coli BL21(DE3) pArg
T9 sequence (P45481 586-665 E655A limits assumed): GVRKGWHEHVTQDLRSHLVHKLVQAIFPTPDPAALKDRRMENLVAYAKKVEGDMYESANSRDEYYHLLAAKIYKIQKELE

[3] = molecular target: T10, HisKIX (His-tagged CBP KIX domain) (Mus musculus, UniProt P45481); assay: Equilibrium fluorescence polarization, HisKIX binding; conditions: 25° C.
T10 construct: The CBP KIX-coding region (residues 586 to 672) of pGEX-KT KIX 10-672; made in house; host or cells: E. coli BL21(DE3) pArg
T10 sequence (P45481 586-672): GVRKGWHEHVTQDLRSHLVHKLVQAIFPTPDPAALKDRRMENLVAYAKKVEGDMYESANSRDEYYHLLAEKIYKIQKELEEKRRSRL

GST-KIX = molecular target: T11, GST-KIX (Mus musculus, UniProt P45481); assay: Fluorescence polarization, wild type GST-KIX; assay type: binding
T11 construct: pGST-ΔKIX(588-683) (a gift from Jennifer Nyborg); made in house; host or cells: E. coli BL21(DE3) pArg
T11 sequence (P45481 588-683): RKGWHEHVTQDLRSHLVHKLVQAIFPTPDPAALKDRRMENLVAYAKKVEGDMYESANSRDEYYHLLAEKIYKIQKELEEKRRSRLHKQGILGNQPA

CBP KIX Y658A = molecular target: T12, CBP KIX Y658A (Mus musculus, UniProt P45481, Y658A); assay: Equilibrium fluorescence polarization, CBP KIX variant Y658A; assay type: binding; conditions: 25° C.
T12 construct: made in house; host or cells: E. coli BL21(DE3) pArg
T12 sequence (P45481 586-665 Y658A limits assumed): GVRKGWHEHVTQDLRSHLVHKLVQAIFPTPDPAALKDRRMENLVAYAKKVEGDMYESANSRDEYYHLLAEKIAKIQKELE

CBP KIX Q661A = molecular target: T13, CBP KIX Q661A (Mus musculus, UniProt P45481, Q661A); assay: Equilibrium fluorescence polarization, CBP KIX variant Q661A; assay type: binding; conditions: 25° C.
T13 construct: made in house; host or cells: E. coli BL21(DE3) pArg
T13 sequence (P45481 586-665 Q661A limits assumed): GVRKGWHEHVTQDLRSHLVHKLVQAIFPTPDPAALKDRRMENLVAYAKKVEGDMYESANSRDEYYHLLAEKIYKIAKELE

CBP KIX wild type = molecular target: T14, CBP KIX wild type (Mus musculus, UniProt P45481); assay: Equilibrium fluorescence polarization, wild type CBP KIX; assay type: binding; conditions: 25° C.
T14 construct: made in house; host or cells: E. coli BL21(DE3) pArg
T14 sequence (P45481 586-665 limits assumed): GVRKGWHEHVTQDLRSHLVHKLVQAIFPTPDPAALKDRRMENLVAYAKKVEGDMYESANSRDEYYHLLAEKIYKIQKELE

CBP KIX K662A = molecular target: T15, CBP KIX K662A (Mus musculus, UniProt P45481, K662A); assay: Equilibrium fluorescence polarization, CBP KIX variant K662A; assay type: binding; conditions: 25° C.
T15 construct: made in house; host or cells: E. coli BL21(DE3) pArg
T15 sequence (P45481 586-665 K662A limits assumed): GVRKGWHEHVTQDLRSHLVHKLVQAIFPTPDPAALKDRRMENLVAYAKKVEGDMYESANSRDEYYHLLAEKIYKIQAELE

CBP KIX I657A = molecular target: T16, CBP KIX I657A (Mus musculus, UniProt P45481, I657A); assay: Equilibrium fluorescence polarization, CBP KIX variant I657A; assay type: binding; conditions: 25° C.
T16 construct: made in house; host or cells: E. coli BL21(DE3) pArg
T16 sequence (P45481 586-665 I657A limits assumed): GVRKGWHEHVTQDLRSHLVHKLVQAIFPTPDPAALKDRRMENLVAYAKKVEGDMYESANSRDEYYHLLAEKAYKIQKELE

CBP KIX LL652-3AA = molecular target: T17, CBP KIX LL652-3AA (Mus musculus, UniProt P45481, L652A/L653A); assay: Equilibrium fluorescence polarization, CBP KIX variant LL652-3AA; assay type: binding; conditions: 25° C.
T17 construct: made in house; host or cells: E. coli BL21(DE3) pArg
T17 sequence (P45481 586-665 L652A/L653A): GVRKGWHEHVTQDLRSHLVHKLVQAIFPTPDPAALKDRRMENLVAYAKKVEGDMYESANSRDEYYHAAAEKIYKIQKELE

Calmodulin [4] = molecular target: T3, Calmodulin; assay: Calmodulin binding by fluorescence emission
Carbonic anhydrase II [5] = molecular target: T7, Carbonic anhydrase II; assay: Carbonic anhydrase II binding by fluorescence emission; conditions: PBS
[6] = Circular dichroism thermal denaturation; assay type: physicochemical; conditions: far UV circular dichroism at 222 nm
Protocol: Spectra were acquired in 0.5×PBS at 25° C. using a Aviv Model 62DS spectrometer. […] Each data set represents the average of 10 scans. Spectra were background corrected but were not smoothed. (b) Temperature dependence of the CD spectrum of pP53-05. ΘMRE is in units of deg·cm^2·dmol^−1.
Circular dichroism spectra were recorded in PBS on an Aviv 202 CD Spectrometer and were background corrected but not smoothed. Wavelength scans were performed at 4° C. between 200 and 260 nm at 1 nm intervals with a recording time of five seconds at each interval. Bak (72-94), 4099, 4100, 4101, 4102 were used at concentrations of 0.028 mM, 0.0069 mM, 0.0119 mM, 0.014 mM and 0.016 mM respectively. Thermal denaturation curves were measured at 222 nm between 4-98° C. with 2° C. steps and one minute equilibration at each temperature. Peptides were used at the highest concentrations used for the wavelength scans described above. Mean residue elliptcity and percent helicity were calculated from the value at 222 nm after background correction.

Bcl-2 = Bcl-2 (Homo sapiens, UniProt P10415); assay: Bcl-2 binding by fluorescence emission of fluorescein-labeled peptide; conditions: read-out: Kd for binding to Bcl-2, 4° C., PBS
Sequence of Bcl-2 (P10415 1-205): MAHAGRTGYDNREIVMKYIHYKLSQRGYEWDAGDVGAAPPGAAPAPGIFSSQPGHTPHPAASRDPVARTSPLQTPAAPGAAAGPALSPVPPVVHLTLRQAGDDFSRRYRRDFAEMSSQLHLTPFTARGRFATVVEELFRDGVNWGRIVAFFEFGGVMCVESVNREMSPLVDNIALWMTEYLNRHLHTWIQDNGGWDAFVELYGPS

With `CC[C@H](C)[C@H](NC(=O)CN)C(=O)N[C@@H](CO)C(=O)N[C@@H](Cc1c[nH]c2ccccc12)C(=O)N1CCC[C@H]1C(=O)N[C@H](C(=O)N[C@@H](Cc1ccccc1)C(=O)N[C@@H](CCC(=O)O)C(=O)NCC(=O)N[C@@H](CC(=O)O)C(=O)N[C@@H](CC(=O)O)C(=O)N[C@@H](C)C(=O)N1CCC[C@H]1C(=O)N[C@H](C(=O)N[C@@H](CCCNC(=N)N)C(=O)N[C@@H](CCCNC(=N)N)C(=O)N[C@@H](CC(C)C)C(=O)N[C@@H](CO)C(=O)N[C@@H](Cc1ccccc1)C(=O)N[C@@H](Cc1ccccc1)C(=O)N[C@@H](Cc1ccc(O)cc1)C(=O)N[C@H](C(=O)N[C@@H](CC(C)C)C(=O)N[C@@H](CC(C)C)C(=O)N[C@@H](CC(=O)O)C(=O)N[C@@H](CC(C)C)C(=O)N[C@@H](Cc1ccc(O)cc1)C(=O)N[C@@H](CC(C)C)C(=O)N[C@@H](CC(=O)O)C(=O)N[C@@H](C)C(=O)N1CCC[C@H]1C(=O)NCC(=O)N[C@H](C(=O)N[C@@H](CSCC(=O)Nc1ccc2c(c1)C(=O)OC21c2ccc(O)cc2Oc2cc(O)ccc21)C(N)=O)C(C)C)[C@@H](C)CC)C(C)C)[C@@H](C)O` [PPKID6] (H-GISWPTFEGDDAPVRRLSFFYILLDLYLDAPGVC(Fluorescein(5-NHCOCH2))-NH2) the Kd (CBP KIX K606A) was 1.2 ± 0.1 µM, the Kd (CBP KIX L603A) was 2.5 ± 0.3 µM and the Kd (Calmodulin [1]) was ≥ 168 µM. For the same compound, the Kd (CBP KIX L599A) was 3.3 ± 0.3 µM, the Kd (CBP KIX Y658F) was 2.8 ± 0.4 µM and the Kd (CBP KIX I660A) was 6.1 ± 0.7 µM. The Kd (Carbonic anhydrase II [2]) was 79 ± 13 µM, the Kd (CBP KIX Y650A) was 1.3 ± 0.2 µM and the Kd (CBP KIX E655A) was 1.7 ± 0.2 µM. The Kd ([3]; fluorescein-labeled phosphopeptide, read-out: Kd HisKIX, phosphorylated peptide (P)) was 0.624 ± 0.049 µM, the Kd ([3]; label shows phosphorylated (P) or unphosphorylated (U) form, read-out: Kd HisKIX) was 1.5 to 3.1 µM and 1.5 µM and the Kd (GST-KIX) was 0.714 ± 0.128 µM. The Kd (CBP KIX Y658A) was 1.7 ± 0.4 µM, the Kd (CBP KIX Q661A) was 0.41 ± 0.06 µM and the Kd (CBP KIX wild type) was 0.54 ± 0.06 µM. For the same compound, the Kd (CBP KIX K662A) was 1.8 ± 0.3 µM, the Kd (CBP KIX I657A) was 3.6 ± 0.4 µM and the Kd (CBP KIX LL652-3AA) was 0.14 ± 0.02 µM.
For `CC[C@H](C)[C@H](NC(=O)[C@H](CC(C)C)NC(=O)[C@H](CC(=O)O)NC(=O)[C@H](CCC(=O)O)NC(=O)[C@@H](NC(=O)[C@@H]1CCCN1C(=O)[C@H](C)NC(=O)[C@H](CC(=O)O)NC(=O)[C@H](CC(=O)O)NC(=O)CNC(=O)[C@@H]1CCCN1C(=O)[C@H](Cc1ccc(O)cc1)NC(=O)[C@@H](NC(=O)[C@@H]1CCCN1C(=O)[C@H](CCC(N)=O)NC(=O)[C@H](CO)NC(=O)[C@@H]1CCCN1C(=O)CN)[C@@H](C)O)C(C)C)C(=O)N[C@@H](CCCNC(=N)N)C(=O)N[C@@H](Cc1ccccc1)C(=O)N[C@H](C(=O)NCC(=O)N[C@@H](CCCNC(=N)N)C(=O)N[C@@H](CC(C)C)C(=O)N[C@@H](CC(C)C)C(=O)N[C@@H](C)C(=O)N[C@@H](Cc1ccc(O)cc1)C(=O)N[C@@H](Cc1ccccc1)C(=O)NCC(=O)N[C@@H](CC(=O)O)C(=O)N[C@H](C(=O)N[C@H](C(=O)N[C@@H](CC(N)=O)C(=O)N[C@@H](CCCNC(=N)N)C(=O)N[C@@H](CCCNC(=N)N)C(N)=O)[C@@H](C)CC)[C@@H](C)O)C(C)C` [p4099] (H-GPSQPTYPGDDAPVEDLIRFVGRLLAYFGDTINRR-NH2), the Kd (Calmodulin [4]) was 25 ± 4 µM, the Kd (Carbonic anhydrase II [5]) was 8.6 µM and the “Tm, cooperative thermal melt” value [6] was “approximately 65 °C”. It also gave a Kd (Bcl-2) of 0.352 ± 0.033 µM.
